Laboratory results reported in US20240158412A1 (Faxian Therapeutics, LLC, priority 2021, published 2024).

Target: USP7 (Homo sapiens, UniProt Q93009)
Test: biochemical
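Also: fluorescence intensity readout of USP7 enzymatic activity, reaction incubated 90 min at room temperature.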

Sequence of USP7 (Q93009 whole entry): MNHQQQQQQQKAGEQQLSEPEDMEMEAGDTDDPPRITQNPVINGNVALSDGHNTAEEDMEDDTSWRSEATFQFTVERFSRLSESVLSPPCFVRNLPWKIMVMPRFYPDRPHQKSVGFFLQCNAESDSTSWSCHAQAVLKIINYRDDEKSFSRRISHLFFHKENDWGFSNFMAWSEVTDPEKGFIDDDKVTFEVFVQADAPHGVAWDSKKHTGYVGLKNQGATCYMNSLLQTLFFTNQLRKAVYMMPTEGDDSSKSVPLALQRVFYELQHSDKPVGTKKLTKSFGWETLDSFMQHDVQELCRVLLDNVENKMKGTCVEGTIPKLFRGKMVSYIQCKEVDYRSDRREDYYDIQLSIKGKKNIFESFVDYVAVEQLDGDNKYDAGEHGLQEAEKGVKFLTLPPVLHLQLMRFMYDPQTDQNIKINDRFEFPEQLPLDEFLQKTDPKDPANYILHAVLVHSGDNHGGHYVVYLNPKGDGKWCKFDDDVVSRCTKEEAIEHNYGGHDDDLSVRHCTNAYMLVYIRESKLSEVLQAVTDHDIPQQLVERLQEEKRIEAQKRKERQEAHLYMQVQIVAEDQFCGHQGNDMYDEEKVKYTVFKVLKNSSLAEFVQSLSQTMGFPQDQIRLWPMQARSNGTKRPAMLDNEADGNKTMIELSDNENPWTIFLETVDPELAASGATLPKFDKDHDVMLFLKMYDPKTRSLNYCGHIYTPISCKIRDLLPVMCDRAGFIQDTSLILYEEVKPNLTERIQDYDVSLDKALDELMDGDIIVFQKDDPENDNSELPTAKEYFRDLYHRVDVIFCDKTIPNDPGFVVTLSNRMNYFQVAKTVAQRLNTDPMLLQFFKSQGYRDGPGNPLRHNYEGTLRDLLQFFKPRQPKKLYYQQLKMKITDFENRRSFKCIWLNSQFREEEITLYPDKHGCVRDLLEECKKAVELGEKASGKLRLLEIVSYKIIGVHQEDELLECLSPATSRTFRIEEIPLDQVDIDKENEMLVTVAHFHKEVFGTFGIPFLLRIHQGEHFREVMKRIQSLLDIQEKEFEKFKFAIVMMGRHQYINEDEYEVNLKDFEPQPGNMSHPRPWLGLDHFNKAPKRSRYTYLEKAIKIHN

Structure (SMILES)	IC50 [µM]
CCN1CC(N2CCCc3cc(Cl)cc(-c4ccnc5cc(CN6C(=O)CCC6=O)sc45)c32)C1 [Example 4, 1-((7-(6-chloro-1-(1-ethylazetidin-3-yl)-1,2,3,4-tetrahydroquinolin-8-yl)thieno[3,2-b]pyridin-2-yl)methyl)pyrrolidine-2,5-dione]	0.01 to 0.1
O=C1CCC(=O)N1Cc1cc2nccc(-c3cc(Cl)cc4c3N(C3CN(C5CC5)C3)CCC4)c2s1 [Example 5, 1-((7-(6-chloro-1-(1-cyclopropylazetidin-3-yl)-1,2,3,4-tetrahydroquinolin-8-yl)thieno[3,2-b]pyridin-2-yl)methyl)pyrrolidine-2,5-dione]	0.01 to 0.1
O=C1CCC(=O)N1Cc1cc2nccc(-c3cc(Cl)cc4c3N([C@@H]3CN(CCc5nnn[nH]5)C5(CCC5)C3)CCC4)c2s1 [Example 144, (S)-1-((7-(1-(5-(2-(1H-tetrazol-5-yl)ethyl)-5-azaspiro[3.4]octan-7-yl)-6-chloro-1,2,3,4-tetrahydroquinolin-8-yl)thieno[3,2-b]pyridin-2-yl)methyl)pyrrolidine-2,5-dione]	0.01 to 0.1
O=c1c2ccccc2ncn1Cc1cc2nccc(-c3cc(Cl)cc4c3N(C3CNC3)CCC4)c2s1 [Example 19, 3-[[7-[1-(azetidin-3-yl)-6-chloro-3,4-dihydro-2H-quinolin-8-yl]thieno[3,2-b]pyridin-2-yl]methyl]quinazolin-4-one]	> 1
Cn1cc(Cc2cc3nccc(-c4cc(Cl)cc5c4N([C@@H]4CCNC4)CCC5)c3s2)nn1 (single isomer, unassigned) [Example 98]	0.101 to 1
CCN1CC[C@H](N2CCCc3cc(C#N)cc(-c4ccnc5cc(Cn6c(=O)ccn(CC(F)(F)F)c6=O)sc45)c32)C1 [Example 84, (S)-8-(2-((2,6-dioxo-3-(2,2,2-trifluoroethyl)-2,3-dihydropyrimidin-1(6H)-yl)methyl)thieno[3,2-b]pyridin-7-yl)-1-(1-ethylpyrrolidin-3-yl)-1,2,3,4-tetrahydroquinoline-6-carbonitrile]	< 0.01
O=C1CCC(=O)N1Cc1cc2nccc(-c3cc(Cl)cc4c3N(C3CN(CC(F)F)C3)CCC4)c2s1 [Example 11, 1-((7-(6-chloro-1-(1-(2,2-difluoroethyl)azetidin-3-yl)-1,2,3,4-tetrahydroquinolin-8-yl)thieno[3,2-b]pyridin-2-yl)methyl)pyrrolidine-2,5-dione]	0.101 to 1
O=c1ccn(C[C@@H](O)C(F)(F)F)c(=O)n1Cc1cc2nccc(-c3cc(Cl)cc4c3N([C@H]3CCNC3)CCC4)c2s1 [Example 65, 3-((7-(6-chloro-1-((S)-pyrrolidin-3-yl)-1,2,3,4-tetrahydroquinolin-8-yl)thieno[3,2-b]pyridin-2-yl)methyl)-1-((R)-3,3,3-trifluoro-2-hydroxypropyl)pyrimidine-2,4(1H,3H)-dione]	< 0.01
Cc1cnn(Cc2cc3nccc(-c4cc(Cl)cc5c4N(C4CNC4)CCC5)c3s2)c(=O)c1 [Example 22, 2-[[7-[1-(azetidin-3-yl)-6-chloro-3,4-dihydro-2H-quinolin-8-yl]thieno[3,2-b]pyridin-2-yl]methyl]-5-methyl-pyridazin-3-one]	0.01 to 0.1
CC1(C)C2C(=O)N(Cc3cc4nccc(-c5cc(Cl)cc6c5N(C5CNC5)CCC6)c4s3)C(=O)C21 (stereo not shown) [Example 14, 3-[[7-[1-(azetidin-3-yl)-6-chloro-3,4-dihydro-2H-quinolin-8-yl]thieno[3,2-b]pyridin-2-yl]methyl]-6,6-dimethyl-3-azabicyclo[3.1.0]hexane-2,4-dione]	0.01 to 0.1
CN1CC[C@H](N2CCCc3cc(Cl)cc(-c4ccnc5cc(CN6C(=O)CCC6=O)sc45)c32)C1 [Example 59, (S)-1-((7-(6-chloro-1-(1-methylpyrrolidin-3-yl)-1,2,3,4-tetrahydroquinolin-8-yl)thieno[3,2-b]pyridin-2-yl)methyl)pyrrolidine-2,5-dione]	< 0.01
O=c1cc(NC2CCC2)cnn1Cc1cc2nccc(-c3cc(Cl)cc4c3N(C3CNC3)CCC4)c2s1 [Example 35, 2-[[7-[1-(azetidin-3-yl)-6-chloro-3,4-dihydro-2H-quinolin-8-yl]thieno[3,2-b]pyridin-2-yl]methyl]-5-(cyclobutylamino)pyridazin-3-one]	0.01 to 0.1
CC1(C)C[C@H](N2CCCc3cc(C#N)cc(-c4ccnc5cc(Cn6c(=O)ccn(CC(F)(F)F)c6=O)sc45)c32)CN1 [Example 125, (S)-1-(5,5-dimethylpyrrolidin-3-yl)-8-(2-((2,6-dioxo-3-(2,2,2-trifluoroethyl)-2,3-dihydropyrimidin-1(6H)-yl)methyl)thieno[3,2-b]pyridin-7-yl)-1,2,3,4-tetrahydroquinoline-6-carbonitrile]	< 0.01
O=C1CCC(=O)N1Cc1cc2nccc(-c3cc(Cl)cc4c3N([C@@H]3CN(CCO)C5(CCC5)C3)CCC4)c2s1 [Example 141, (S)-1-((7-(6-chloro-1-(5-(2-hydroxyethyl)-5-azaspiro[3.4]octan-7-yl)-1,2,3,4-tetrahydroquinolin-8-yl)thieno[3,2-b]pyridin-2-yl)methyl)pyrrolidine-2,5-dione]	< 0.01
O=C1c2ccccc2CN1Cc1cc2nccc(-c3cc(Cl)cc4c3N([C@H]3CCNC3)CCC4)c2s1 [Example 71, (S)-2-((7-(6-chloro-1-(pyrrolidin-3-yl)-1,2,3,4-tetrahydroquinolin-8-yl)thieno[3,2-b]pyridin-2-yl)methyl)isoindolin-1-one]	0.101 to 1
N[C@H]1C[C@H](N2CCCc3cc(Cl)cc(-c4ccnc5cc(CN6C(=O)CCC6=O)sc45)c32)C1 (single isomer, unassigned) [Example 42b, trans-1-((7-(1-(3-aminocyclobutyl)-6-chloro-1,2,3,4-tetrahydroquinolin-8-yl)thieno[3,2-b]pyridin-2-yl)methyl)pyrrolidine-2,5-dione]	0.01 to 0.1
O=C1CNCC(=O)N1Cc1cc2nccc(-c3cc(Cl)cc4c3N(C3CNC3)CCC4)c2s1 [Example 28, 1-[[7-[1-(azetidin-3-yl)-6-chloro-3,4-dihydro-2H-quinolin-8-yl]thieno[3,2-b]pyridin-2-yl]methyl]piperazine-2,6-dione]	< 0.01
CC(=O)N1CC(N2CCCc3cc(Cl)cc(-c4ccnc5cc(CN6C(=O)CCC6=O)sc45)c32)C1 [Example 8, 1-((7-(1-(1-acetylazetidin-3-yl)-6-chloro-1,2,3,4-tetrahydroquinolin-8-yl)thieno[3,2-b]pyridin-2-yl)methyl)pyrrolidine-2,5-dione]	0.101 to 1
O=c1ccn(CC(F)F)c(=O)n1Cc1cc2nccc(-c3cc(Cl)cc4c3N([C@H]3CCNC3)CCC4)c2s1 [Example 101, (S)-3-((7-(6-chloro-1-(pyrrolidin-3-yl)-1,2,3,4-tetrahydroquinolin-8-yl)thieno[3,2-b]pyridin-2-yl)methyl)-1-(2,2-difluoroethyl)pyrimidine-2,4(1H,3H)-dione]	< 0.01
O=C1CCC(=O)N1Cc1cc2nccc(-c3cc(Cl)cc4c3N(C3CNC3)C[C@H]3C[C@@H]43)c2s1 (single isomer, unassigned) [Example 43b]	0.01 to 0.1
O=C1CCC(=O)N1Cc1cc2ncc(F)c(-c3cc(Cl)cc4c3N([C@H]3CCNC3)CCC4)c2s1 [Example 109, 1-((7-(6-chloro-1-((S)-pyrrolidin-3-yl)-1,2,3,4-tetrahydroquinolin-8-yl)-6-fluorothieno[3,2-b]pyridin-2-yl)methyl)pyrrolidine-2,5-dione]	< 0.01
O=C1OC[C@H](C(F)(F)F)N1Cc1cc2nccc(-c3cc(Cl)cc4c3N([C@@H]3CNC5(CCC5)C3)CCC4)c2s1 [Example 158, (R)-3-((7-(6-chloro-1-((S)-5-azaspiro[3.4]octan-7-yl)-1,2,3,4-tetrahydroquinolin-8-yl)thieno[3,2-b]pyridin-2-yl)methyl)-4-(trifluoromethyl)oxazolidin-2-one]	< 0.01

Further lines, results first:

IC50 [µM]	Structure (SMILES)
< 0.01	O=C1CCC(=O)N1Cc1cc2nccc(-c3cc(Cl)cc4c3N([C@H]3CCCNC3)CCC4)c2s1 (single isomer, unassigned) [Example 51a]
0.01 to 0.1	O=C1C2CC2C(=O)N1Cc1cc2nccc(-c3cc(Cl)cc4c3N([C@@H]3CNC(CO)(CO)C3)CCO4)c2s1 (single isomer, unassigned) [Example 212b]
0.101 to 1	O=C1CCC(=O)N1Cc1cc2nccc(-c3cc(Cl)cc4c3N(C3CNC5(CCC5)C3)C(=O)CO4)c2s1 (single isomer, unassigned) [Example 173b]
> 1	O=C1CCC(=O)N1Cc1cc2nccc(-c3cccc4c3N([C@@H]3CCNC3)CCO4)c2s1 (single isomer, unassigned) [Example 111b]
0.101 to 1	N#Cc1cc2c(c(-c3ccnc4cc(CN5C(=O)C6CC6C5=O)sc34)c1)N([C@H]1CNC3(CCCC3)C1)CCC2 (stereo partly drawn) [Example 178a, 8-(2-((2,4-dioxo-3-azabicyclo[3.1.0]hexan-3-yl)methyl)thieno[3,2-b]pyridin-7-yl)-1-((R)-1-azaspiro[4.4]nonan-3-yl)-1,2,3,4-tetrahydroquinoline-6-carbonitrile]
< 0.01	O=c1ccn(C2CC2)c(=O)n1Cc1cc2nccc(-c3cc(C(F)(F)F)cc4c3N(C3CNC5(CCC5)C3)CCC4)c2s1 (single isomer, unassigned) [Example 162a]
< 0.01	N#Cc1cc(-c2ccnc3cc(Cn4c(=O)ccn(CC(F)F)c4=O)sc23)c2c(c1)[C@@H]1C[C@@H]1CN2[C@H]1CCNC1 [Example 117d, (1aS,7bR)-4-[2-[[3-(2,2-difluoroethyl)-2,6-dioxo-pyrimidin-1-yl]methyl]thieno[3,2-b]pyridin-7-yl]-3-[(3S)-pyrrolidin-3-yl]-1,1a,2,7b-tetrahydrocyclopropa[c]quinoline-6-carbonitrile]
0.01 to 0.1	N#Cc1cc(-c2ccnc3cc(Cn4ncc(C5(C(F)(F)F)CC5)cc4=O)sc23)c2c(c1)C1CC1CN2[C@@H]1CN[C@@H](CO)C1 (stereo in doubt) [Example 194b, (1aS,7bR)-3-((3S,5R)-5-(hydroxymethyl)pyrrolidin-3-yl)-4-(2-((6-oxo-4-(1-(trifluoromethyl)cyclopropyl)pyridazin-1(6H)-yl)methyl)thieno[3,2-b]pyridin-7-yl)-1a,2,3,7b-tetrahydro-1H-cyclopropa[c]quinoline-6-carbonitrile]
< 0.01	Cc1cnn(Cc2cc3nccc(-c4cc(C#N)cc5c4N(C4CNC(C)(C)C4)CCC5)c3s2)c(=O)c1 (single isomer, unassigned) [Example 120a]
